Laboratory results from the NIST ThermoML archive (doi:10.1021/je8008864).
± gives the expanded uncertainty stated by the source.

Assay: mn = molality of the nth substance listed, in mol/kg
Conditions: 101 kPa, Liquid; for viscosity: Rotational; for mass density: Vibrating tube method

CC(CN(C)C)CN1c2ccccc2CCc2ccccc21.O=C(O)/C=C\C(=O)O (stereo not drawn) [trimipramine maleate] + O
Conditions	mass density [kg/m3]	viscosity [mPa·s]
293.15 K, m1 = 0.0075	998.499 ± 0.11	1.035 ± 0.006
293.15 K, m1 = 0.01	998.566 ± 0.11	1.035 ± 0.006
293.15 K, m1 = 0.0125	998.625 ± 0.11	1.036 ± 0.006
293.15 K, m1 = 0.0152	998.675 ± 0.11	1.036 ± 0.006
293.15 K, m1 = 0.0175	998.715 ± 0.11	1.037 ± 0.006
293.15 K, m1 = 0.02	998.745 ± 0.1	1.038 ± 0.006
293.15 K, m1 = 0.025	998.799 ± 0.1	1.04 ± 0.006
298.15 K, m1 = 0.0076	997.329 ± 0.12	0.937 ± 0.006
298.15 K, m1 = 0.01	997.396 ± 0.11	0.9373 ± 0.006
298.15 K, m1 = 0.0125	997.455 ± 0.11	0.9376 ± 0.006
298.15 K, m1 = 0.0152	997.499 ± 0.11	0.9379 ± 0.006
298.15 K, m1 = 0.0175	997.535 ± 0.11	0.9382 ± 0.006
298.15 K, m1 = 0.02	997.569 ± 0.11	0.9385 ± 0.006
298.15 K, m1 = 0.025	997.601 ± 0.1	0.9393 ± 0.006
303.15 K, m1 = 0.0076	995.919 ± 0.12	0.8339 ± 0.006
303.15 K, m1 = 0.01	995.981 ± 0.11	0.8342 ± 0.006
303.15 K, m1 = 0.0125	996.031 ± 0.11	0.8345 ± 0.006
303.15 K, m1 = 0.0152	996.081 ± 0.11	0.8348 ± 0.006
303.15 K, m1 = 0.0175	996.105 ± 0.11	0.835 ± 0.006
303.15 K, m1 = 0.02	996.141 ± 0.11	0.8354 ± 0.006
303.15 K, m1 = 0.025	996.175 ± 0.1	0.8361 ± 0.006
308.15 K, m1 = 0.0076	994.296 ± 0.11	0.7339 ± 0.006
308.15 K, m1 = 0.01	994.355 ± 0.11	0.7341 ± 0.006
308.15 K, m1 = 0.0125	994.401 ± 0.11	0.7343 ± 0.006
308.15 K, m1 = 0.0152	994.455 ± 0.11	0.7346 ± 0.006
308.15 K, m1 = 0.0175	994.475 ± 0.11	0.7348 ± 0.006
308.15 K, m1 = 0.02	994.515 ± 0.11	0.7351 ± 0.006
308.15 K, m1 = 0.025	994.535 ± 0.1	0.7355 ± 0.006
310.15 K, m1 = 0.0076	993.58 ± 0.11	0.6928 ± 0.006
310.15 K, m1 = 0.01	993.638 ± 0.11	0.693 ± 0.006
310.15 K, m1 = 0.0125	993.681 ± 0.11	0.6932 ± 0.006
310.15 K, m1 = 0.0152	993.721 ± 0.11	0.6934 ± 0.006
310.15 K, m1 = 0.0175	993.749 ± 0.11	0.6937 ± 0.006
310.15 K, m1 = 0.02	993.769 ± 0.11	0.6939 ± 0.006
310.15 K, m1 = 0.025	993.799 ± 0.1	0.6943 ± 0.006
313.15 K, m1 = 0.0076	992.458 ± 0.11	0.6561 ± 0.006
313.15 K, m1 = 0.01	992.506 ± 0.11	0.6564 ± 0.006
313.15 K, m1 = 0.0125	992.551 ± 0.11	0.6566 ± 0.006
313.15 K, m1 = 0.0152	992.589 ± 0.11	0.6568 ± 0.006
313.15 K, m1 = 0.0175	992.609 ± 0.11	0.6571 ± 0.006
313.15 K, m1 = 0.02	992.615 ± 0.11	0.6573 ± 0.006
313.15 K, m1 = 0.025	992.635 ± 0.11	0.6579 ± 0.006

CNCCC=C1c2ccccc2CCc2ccccc21.Cl + O
Conditions	mass density [kg/m3]	viscosity [mPa·s]
293.15 K, m1 = 0.0075	998.486 ± 0.11	1.035 ± 0.006
293.15 K, m1 = 0.01	998.545 ± 0.11	1.035 ± 0.006
293.15 K, m1 = 0.0125	998.599 ± 0.11	1.036 ± 0.006
293.15 K, m1 = 0.0152	998.645 ± 0.11	1.036 ± 0.006
293.15 K, m1 = 0.0175	998.668 ± 0.1	1.037 ± 0.006
293.15 K, m1 = 0.02	998.705 ± 0.1	1.037 ± 0.006
293.15 K, m1 = 0.025	998.721 ± 0.1	1.038 ± 0.006
298.15 K, m1 = 0.0076	997.322 ± 0.12	0.9368 ± 0.006
298.15 K, m1 = 0.01	997.382 ± 0.11	0.937 ± 0.006
298.15 K, m1 = 0.0125	997.428 ± 0.11	0.9374 ± 0.006
298.15 K, m1 = 0.0152	997.469 ± 0.11	0.9376 ± 0.006
298.15 K, m1 = 0.0175	997.499 ± 0.11	0.9379 ± 0.006
298.15 K, m1 = 0.02	997.521 ± 0.1	0.9382 ± 0.006
298.15 K, m1 = 0.025	997.545 ± 0.11	0.9388 ± 0.006
303.15 K, m1 = 0.0076	995.904 ± 0.12	0.8338 ± 0.006
303.15 K, m1 = 0.01	995.959 ± 0.11	0.8339 ± 0.006
303.15 K, m1 = 0.0125	996.001 ± 0.11	0.8342 ± 0.006
303.15 K, m1 = 0.0152	996.045 ± 0.11	0.8345 ± 0.006
303.15 K, m1 = 0.0175	996.065 ± 0.1	0.8348 ± 0.006
303.15 K, m1 = 0.02	996.085 ± 0.1	0.8349 ± 0.006
303.15 K, m1 = 0.025	996.105 ± 0.1	0.8356 ± 0.006
308.15 K, m1 = 0.0076	994.285 ± 0.11	0.7279 ± 0.006
308.15 K, m1 = 0.01	994.335 ± 0.11	0.7281 ± 0.006
308.15 K, m1 = 0.0125	994.379 ± 0.11	0.7283 ± 0.006
308.15 K, m1 = 0.0152	994.409 ± 0.11	0.7285 ± 0.006
308.15 K, m1 = 0.0175	994.435 ± 0.11	0.7286 ± 0.006
308.15 K, m1 = 0.02	994.455 ± 0.1	0.7289 ± 0.006
308.15 K, m1 = 0.025	994.465 ± 0.1	0.7293 ± 0.006
310.15 K, m1 = 0.0076	993.565 ± 0.11	0.6925 ± 0.006
310.15 K, m1 = 0.01	993.621 ± 0.11	0.6928 ± 0.006
310.15 K, m1 = 0.0125	993.659 ± 0.11	0.6929 ± 0.006
310.15 K, m1 = 0.0152	993.689 ± 0.11	0.6931 ± 0.006
310.15 K, m1 = 0.0175	993.712 ± 0.11	0.6932 ± 0.006
310.15 K, m1 = 0.02	993.73 ± 0.1	0.6935 ± 0.006
310.15 K, m1 = 0.025	993.741 ± 0.1	0.6938 ± 0.006
313.15 K, m1 = 0.0076	992.443 ± 0.11	0.6556 ± 0.006
313.15 K, m1 = 0.01	992.499 ± 0.11	0.6557 ± 0.006
313.15 K, m1 = 0.0125	992.539 ± 0.11	0.6558 ± 0.006
313.15 K, m1 = 0.0152	992.571 ± 0.11	0.656 ± 0.006
313.15 K, m1 = 0.0175	992.592 ± 0.11	0.6562 ± 0.006
313.15 K, m1 = 0.02	992.601 ± 0.11	0.6564 ± 0.006
313.15 K, m1 = 0.025	992.609 ± 0.11	0.6568 ± 0.006
